Here are results for seven molecules from PubChem BioAssay (NCI).

Test systems include CAKI-1 renal; HL-60(TB) leukemia; SK-MEL-2 melanoma; ACHN renal; DU-145 prostate; SF-268 CNS; OVCAR-4 ovarian; SK-MEL-28 melanoma; SNB-75 CNS; UACC-257 melanoma; SF-539 CNS; IGROV1 ovarian; LOX IMVI melanoma; NCI-H23 lung; OVCAR-3 ovarian; NCI-H460 lung; OVCAR-8 ovarian; UO-31 renal; EKVX NSCLC.
Holding throughout (experiment): NCI anticancer screen, dose series, 48 h

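Values below derive from 48-hour exposures of cells grown in 96-well plates, with endpoints linearly interpolated between the two concentrations bracketing the appropriate inhibition level. TGI: concentration producing complete growth inhibition.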 Bounds are passed on as bounds.

For `C=CC(c1ccccc1)[C@@]1(OC(C)=O)C(=O)C(=O)OC1C1COC(C)(C)O1` (stereo not given in full), the TGI with CAKI-1 renal was 11.7 µM; in the test on HL-60(TB) leukemia, 5.86 µM; with SK-MEL-2 melanoma, 33.4 µM; in the test on ACHN renal it was 18.6 µM; in the test on DU-145 prostate, 54.2 µM; in the test with SF-268 CNS it was 71.4 µM. Also, the TGI worked out at 30.5 µM in the test with OVCAR-4 ovarian; 24.6 µM with SK-MEL-28 melanoma; 36.6 µM in the test with SNB-75 CNS; 23.9 µM in the test with UACC-257 melanoma; 29.4 µM with SF-539 CNS; 31.9 µM in the test on IGROV1 ovarian. Further, the TGI was 16.2 µM in the test with LOX IMVI melanoma; 42.9 µM in the test on NCI-H23 lung; 24.8 µM with OVCAR-3 ovarian; 32.3 µM in the test on NCI-H460 lung; 27.9 µM in the test with OVCAR-8 ovarian; 23.7 µM in the test on UO-31 renal. In the test on EKVX NSCLC, this molecule came in with a TGI of 35.3 µM.
`O=C1C=C(Sc2ccccc2)c2nccc3c2c1nc1ccccc13`: the TGI in the test on CAKI-1 renal was greater than 100 µM; in the test with HL-60(TB) leukemia it was 4.29 µM; in the test on SK-MEL-2 melanoma it was 27.3 µM; with ACHN renal it was 54.8 µM; in the test on DU-145 prostate, greater than 100 µM; in the test on SF-268 CNS, 26.7 µM. Also, the TGI in the test with OVCAR-4 ovarian is 31.4 µM; in the test with SK-MEL-28 melanoma it was 38.8 µM; in the test on SNB-75 CNS, greater than 100 µM; in the test on UACC-257 melanoma it was 30.6 µM; in the test on SF-539 CNS, 31.1 µM; in the test with IGROV1 ovarian it was 23.9 µM. The TGI with LOX IMVI melanoma was 28.6 µM; in the test on NCI-H23 lung, 73.2 µM; in the test on OVCAR-3 ovarian, 19.7 µM; in the test with NCI-H460 lung, 84.5 µM; in the test on OVCAR-8 ovarian, 37.6 µM; with UO-31 renal it was 27.3 µM. Besides, in the test on EKVX NSCLC, the TGI was 41 µM.
Consider `COC(=O)c1ccccc1CC1Cc2ccc3c(c2C1)CCC3` (stereo not given), for which the TGI in the test with CAKI-1 renal is greater than 100 µM; with HL-60(TB) leukemia, 32.1 µM; in the test on SK-MEL-2 melanoma, 30.7 µM; in the test on ACHN renal, greater than 100 µM; with DU-145 prostate, greater than 100 µM; with SF-268 CNS it was greater than 100 µM. The TGI in the test on OVCAR-4 ovarian is greater than 100 µM; in the test with SK-MEL-28 melanoma, greater than 100 µM; in the test on SNB-75 CNS it was greater than 100 µM; in the test with UACC-257 melanoma it was 28.6 µM; with SF-539 CNS, greater than 100 µM; in the test with IGROV1 ovarian, greater than 100 µM. Further, the TGI in the test on LOX IMVI melanoma was 31.1 µM; in the test on NCI-H23 lung, greater than 100 µM; in the test with OVCAR-3 ovarian it was greater than 100 µM; in the test with NCI-H460 lung, greater than 100 µM; in the test on OVCAR-8 ovarian, greater than 100 µM; with UO-31 renal it was greater than 100 µM. This molecule gave a TGI in the test on EKVX NSCLC of 48.8 µM.
Take `COc1ccc2nc3ccc(OC)cc3c(SCc3ccc([N+](=O)[O-])cc3)c2c1`: the TGI with CAKI-1 renal, in the test on HL-60(TB) leukemia, in the test with SK-MEL-2 melanoma, in the test with ACHN renal, with DU-145 prostate and in the test with SF-268 CNS was greater than 100 µM in each case. The TGI with OVCAR-4 ovarian was 69.6 µM; in the test with SK-MEL-28 melanoma it was greater than 100 µM; in the test on SNB-75 CNS it was greater than 100 µM; with UACC-257 melanoma, greater than 100 µM; in the test on SF-539 CNS it was greater than 100 µM; with IGROV1 ovarian, greater than 100 µM. The TGI in the test on LOX IMVI melanoma, with NCI-H23 lung, in the test on OVCAR-3 ovarian, in the test with NCI-H460 lung, in the test on OVCAR-8 ovarian and in the test on UO-31 renal was greater than 100 µM throughout. In the test on EKVX NSCLC, this molecule registered a TGI greater than 100 µM.
For `Cc1c(C)c2c(c(N)c1C#N)C(=O)N(Nc1ccccc1)C2=O`, the TGI in the test on CAKI-1 renal, with HL-60(TB) leukemia, with SK-MEL-2 melanoma, in the test with ACHN renal, with DU-145 prostate and in the test with SF-268 CNS was greater than 100 µM in each case. Moreover, the TGI with OVCAR-4 ovarian, in the test on SK-MEL-28 melanoma, with SNB-75 CNS, in the test with UACC-257 melanoma, with SF-539 CNS and in the test with IGROV1 ovarian was greater than 100 µM each time. In addition, the TGI in the test on LOX IMVI melanoma, with OVCAR-3 ovarian, in the test on NCI-H460 lung, with OVCAR-8 ovarian, in the test on UO-31 renal and with EKVX NSCLC was greater than 100 µM in each case.
For `COc1cc(C)c2c(=O)c3ccccc3n(C)c2c1`, the TGI was 76.5 µM with CAKI-1 renal; 69.7 µM in the test on HL-60(TB) leukemia; 78.3 µM with SK-MEL-2 melanoma; 55.7 µM in the test with ACHN renal; greater than 100 µM in the test with DU-145 prostate; 95.9 µM in the test on SF-268 CNS. Moreover, the TGI in the test with OVCAR-4 ovarian is 45.6 µM; in the test on SK-MEL-28 melanoma, 89.3 µM; in the test on SNB-75 CNS, 72.8 µM; in the test with UACC-257 melanoma, 77 µM; with SF-539 CNS, 34 µM; in the test on IGROV1 ovarian, 89.8 µM. Also, the TGI in the test with LOX IMVI melanoma is 34.4 µM; with NCI-H23 lung it was 77 µM; in the test on OVCAR-3 ovarian, 52.7 µM; with NCI-H460 lung, greater than 100 µM; in the test with OVCAR-8 ovarian, 78.8 µM; in the test with EKVX NSCLC, 91.9 µM.
Take `OC1(c2ccccc2)CC2CCC(C1)N2CCCC1(c2ccc(F)cc2)OCCO1` (stereo not given): the TGI in the test on CAKI-1 renal, in the test on HL-60(TB) leukemia, with SK-MEL-2 melanoma, in the test on ACHN renal, with DU-145 prostate and in the test on SF-268 CNS was greater than 100 µM in each case. In addition, the TGI with OVCAR-4 ovarian is greater than 100 µM; with SK-MEL-28 melanoma, greater than 100 µM; in the test with SNB-75 CNS, greater than 100 µM; with UACC-257 melanoma, 73.5 µM; in the test on SF-539 CNS, greater than 100 µM; in the test with IGROV1 ovarian, greater than 100 µM. Moreover, the TGI in the test with LOX IMVI melanoma is greater than 100 µM; in the test on NCI-H23 lung, greater than 100 µM; in the test with OVCAR-3 ovarian, greater than 100 µM; in the test on OVCAR-8 ovarian it was 30.2 µM; with UO-31 renal, greater than 100 µM; in the test with EKVX NSCLC, greater than 100 µM.
